In PubChem BioAssay AID1963841 (Molecular Pharmacology Branch, DTP, NCI, 2024):

Test system: 439559-082-T-J2-PDC spheroid viability
Assay: Anticancer human tumor 439559-082-T-J2-PDC patient-derived colon adenocarcinoma cell line growth inhibition [POLQ]
Details: spheroids with HUVEC and MSC; for IC50: curve of first compound; for viability, T/C: stronger effect = lower value
Description: Multicellular complex tumor spheroid response to Polymerase (POL) inhibitors (novobiocin, ART-558, RP6685) in combination with a variety of drugs and investigational agents in selected tumor cell lines
The POL inhibitors (novobiocin, ART-558, and RP6685) were evaluated both individually and in combination with standard of care and investigational anticancer small molecules within a complex spheroid model of solid tumors. . Complex spheroids include a stromal component modeled by human endothelial cells (HUVEC) and fibroblasts modeled by human mesenchymal stem cells (MSCs). The concentration ranges selected for each drug and investigational agent were based upon clinically achievable concentrations if the clinical Cmax of the agent was known.
Compounds. The drugs and investigational agents: novobiocin (NSC847541), ART-558 (NSC835418), RP-6685 (NSC848927), peposertib (NSC802822), ceralasertib (NSC780249), elimusertib (NSC800525), camonsertib (NSC841442), AZD-1390 (NSC803789), olaparib (NSC753686), talazoparib (NSC767125), rucaparib (NSC756644), sotorasib (NSC818433), MRTX-1133 (NSC836407), SN-38 (NSC673596), topotecan (NSC609699), epotoside (NSC141540), doxorubicin (NSC123127), gemcitabine (NSC613327), 5-fluorouracil (NSC19893), paclitaxel (NSC125973), vemurafenib (NSC761431), MSA-2 (NSC828583), SN-011 (NSC837082), adavosertib (NSC754352), prexasertib (NSC758257), carboplatin (NSC241240) and oxaliplatin (NSC266046), were obtained from the National Cancer Institute (NCI) Developmental Therapeutics Program Chemical Repository (21). The FDA-approved anticancer drug set is available from the Developmental Therapeutics Program at https://dtp.cancer.gov/organization/dscb/obtaining/. […] The stock solutions were prepared in dimethyl sulfoxide (DMSO, Sigma-Aldrich, St. Louis, MO, cat. D2650), except for the platinum compounds which were prepared in saline (Quality Biological, Gaithersburg, MD, cat. 114-055-101), at 800-fold the tested concentration and stored at -70 degrees C prior to their use. All drugs and investigational agents were tested over a range starting from a high concentration at or near the clinical Cmax and decreasing in half-log increments. If the clinical Cmax for an agent had not been determined, the highest concentration tested was 10 microM, except for SN-38, which was tested at a high concentration of 1 microM.
Cell Culture. All cells were maintained in an incubator at 37 degrees C and 5% CO2 with 95% humidity. The PDC lines were cultured according to standard operating procedures established by the NCI PDMR (https://pdmr.cancer.gov). Table 3 of the manuscript, lists the cell lines along with the number of the three cell types plated to form the mct-spheroids and media for tumor cell growth. After thawing, all PDC lines, except 997537-175-T-J1-PDC and 415267-285-R-J2-PDC, were cultured in Matrigel-coated flasks prepared with a working solution of 1X Ham's F-12 nutrient mix, without supplementation (Thermo Fisher Scientific, cat. 11765054), 100 U/mL penicillin-streptomycin (Thermo Fisher Scientific, cat. 15140122), and 2.5% Matrigel (Corning Inc., Corning, NY, cat. 354248) for the first three passages. The two PDC lines 997537-175-T-J1-PDC and 415267-285-R-J2-PDC were cultured on uncoated flasks. The 857933-349-R-J2-PDC line was cultured in 6C/Colon 1B media containing advanced DMEM/F-12 (Thermo Fisher Scientific, cat. 12634028), 10 mM HEPES (Thermo Fisher Scientific, cat. 15630080), 1X GlutaMAX supplement (Thermo Fisher Scientific, cat. 35050061), 0.1 mg/mL primocin (InvivoGen, San Diego, CA, cat. ant-pm-2), 10% defined fetal bovine serum, heat inactivated (HyClone Laboratories Inc., Logan, UT, cat. SH30070.03HI), 50% L-WRN conditioned media (ATCC, cat. CRL-3276), 1.25 mM N-Acetyl-L-cysteine (Sigma-Aldrich, cat. A9165), 10 mM nicotinamide (Sigma-Aldrich, cat. N0636), 1X B-27 supplement (Thermo Fisher Scientific, cat. 17504044), 1X N-2 supplement (Thermo Fisher Scientific, cat. […]

[1] = second compound 0.0316 µM, first compound 0.0316 µM
[2] = second compound 0.0316 µM, first compound 0.1 µM
[3] = second compound 0.0316 µM, first compound 0.316 µM
[4] = second compound 0.0316 µM, first compound 1 µM
[5] = second compound 0.0316 µM, first compound 3.16 µM
[6] = second compound 0.0316 µM, first compound 10 µM
[7] = second compound 0.1 µM, first compound 0.0316 µM
[8] = second compound 0.1 µM, first compound 0.1 µM
[9] = second compound 0.1 µM, first compound 0.316 µM
[10] = second compound 0.1 µM, first compound 1 µM
[11] = second compound 0.1 µM, first compound 3.16 µM
[12] = second compound 0.1 µM, first compound 10 µM
[13] = second compound 0.316 µM, first compound 0.0316 µM
[14] = second compound 0.316 µM, first compound 0.1 µM
[15] = second compound 0.316 µM, first compound 0.316 µM
[16] = second compound 0.316 µM, first compound 1 µM
[17] = second compound 0.316 µM, first compound 3.16 µM
[18] = second compound 0.316 µM, first compound 10 µM
[19] = second compound 1 µM, first compound 0.0316 µM
[20] = second compound 1 µM, first compound 0.1 µM
[21] = second compound 1 µM, first compound 0.316 µM
[22] = second compound 1 µM, first compound 1 µM
[23] = second compound 1 µM, first compound 3.16 µM
[24] = second compound 1 µM, first compound 10 µM
[25] = second compound 3.16 µM, first compound 0.0316 µM
[26] = second compound 3.16 µM, first compound 0.1 µM
[27] = second compound 3.16 µM, first compound 0.316 µM
[28] = second compound 3.16 µM, first compound 1 µM
[29] = second compound 3.16 µM, first compound 3.16 µM
[30] = second compound 3.16 µM, first compound 10 µM
[31] = second compound 10 µM, first compound 0.0316 µM
[32] = second compound 10 µM, first compound 0.1 µM
[33] = second compound 10 µM, first compound 0.316 µM
[34] = second compound 10 µM, first compound 1 µM
[35] = second compound 10 µM, first compound 3.16 µM
[36] = second compound 10 µM, first compound 10 µM
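Also: spheroids exposed to compounds for seven days before readout.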
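For viability, T/C in this document: 100% = DMSO vehicle control viability.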

With `Nc1ccn(C2OC(CO)C(O)C2(F)F)c(=O)n1` (centres undefined) + Nc1ccc(C#CCN(C(=O)Cc2ncc(C(F)(F)F)cc2C(F)(F)F)c2ccc(F)cc2)nn1 the IC50 (second compound 0.0316 µM) was 393 nM, the IC50 (second compound 0.1 µM) was 583 nM and the IC50 (second compound 0.316 µM) was 464 nM. It also gave an IC50 (second compound 1 µM) of 519 nM, an IC50 (second compound 3.16 µM) of 615 nM and an IC50 (second compound 10 µM) of 1920 nM. The viability, T/C [1] was 81.7%, the viability, T/C [2] was 88.2% and the viability, T/C [3] was 54.1%. It also gave a viability, T/C [4] of 35.6%, a viability, T/C [5] of 32.7% and a viability, T/C [6] of 28.2%. It also gave a viability, T/C [7] of 89.5%, a viability, T/C [8] of 90.7% and a viability, T/C [9] of 63%. The viability, T/C [10] was 38.9%, the viability, T/C [11] was 33.9% and the viability, T/C [12] was 28.8%. The viability, T/C [13] was 91.1%, the viability, T/C [14] was 90.2% and the viability, T/C [15] was 57.4%. For the same molecule, the viability, T/C [16] was 35.5%, the viability, T/C [17] was 33.2% and the viability, T/C [18] was 26.1%. It also gave a viability, T/C [19] of 86.4%, a viability, T/C [20] of 85.6% and a viability, T/C [21] of 59.1%. The viability, T/C [22] was 37.9%, the viability, T/C [23] was 32.7% and the viability, T/C [24] was 28.8%. For the same molecule, the viability, T/C [25] was 86.3%, the viability, T/C [26] was 79.3% and the viability, T/C [27] was 62.9%. For the same molecule, the viability, T/C [28] was 39.1%, the viability, T/C [29] was 36.1% and the viability, T/C [30] was 27.1%. It also gave a viability, T/C [31] of 90.1%, a viability, T/C [32] of 80% and a viability, T/C [33] of 81.9%. For the same molecule, the viability, T/C [34] was 63.4%, the viability, T/C [35] was 39.3% and the viability, T/C [36] was 35.9%.

With `O=C(c1cc(Cc2n[nH]c(=O)c3ccccc23)ccc1F)N1CCN(C(=O)C2CC2)CC1` + Nc1ccc(C#CCN(C(=O)Cc2ncc(C(F)(F)F)cc2C(F)(F)F)c2ccc(F)cc2)nn1 the IC50 (second compound 0.0316 µM) was > 10000 nM, the IC50 (second compound 0.1 µM) was > 10000 nM and the IC50 (second compound 0.316 µM) was > 10000 nM. For the same molecule, the IC50 (second compound 1 µM) was > 10000 nM, the IC50 (second compound 3.16 µM) was > 10000 nM and the IC50 (second compound 10 µM) was > 10000 nM. The viability, T/C [1] was 93.4%, the viability, T/C [2] was 97.3% and the viability, T/C [3] was 93.4%. For the same molecule, the viability, T/C [4] was 101%, the viability, T/C [5] was 94.3% and the viability, T/C [6] was 98%. It also gave a viability, T/C [7] of 93.1%, a viability, T/C [8] of 106% and a viability, T/C [9] of 89.1%. For the same molecule, the viability, T/C [10] was 117%, the viability, T/C [11] was 92.8% and the viability, T/C [12] was 99.8%. The viability, T/C [13] was 91.5%, the viability, T/C [14] was 105% and the viability, T/C [15] was 86.8%. It also gave a viability, T/C [16] of 96.1%, a viability, T/C [17] of 106% and a viability, T/C [18] of 96.9%. For the same molecule, the viability, T/C [19] was 104%, the viability, T/C [20] was 107% and the viability, T/C [21] was 94.1%. The viability, T/C [22] was 108%, the viability, T/C [23] was 84.7% and the viability, T/C [24] was 104%. It also gave a viability, T/C [25] of 88%, a viability, T/C [26] of 116% and a viability, T/C [27] of 98.3%. It also gave a viability, T/C [28] of 106%, a viability, T/C [29] of 103% and a viability, T/C [30] of 98.3%. For the same molecule, the viability, T/C [31] was 92.8%, the viability, T/C [32] was 87.9% and the viability, T/C [33] was 95.5%. It also gave a viability, T/C [34] of 90.7%, a viability, T/C [35] of 98.2% and a viability, T/C [36] of 103%.
